# Patent US9512120B2, “Microbicidally active imidazopyridine derivatives” (Syngenta Participations AG, priority 2013, dated 2016)
# How the values were obtained:
# Gaeumannomyces graminis = Gaeumannomyces graminis / liquid culture (take-all of cereals); assay type: cell-based; settings: PDB, 24° C., 4-5 days after application, read-out: control of Gaeumannomyces graminis (inhibition of growth, photometric)
# Experimental: (§1) Gaeumannomyces graminis/Liquid Culture (Take-all of Cereals): Mycelial fragments of the fungus from cryogenic storage were directly mixed into nutrient broth (PDB potato dextrose broth). After placing a DMSO solution of test compound into a 96-well microtiter plate at an application rate of 200 ppm, the nutrient broth Cp.33, containing the fungal spores is added. The test plates were incubated at 24° C. and the inhibition of growth was determined photometrically 4-5 days after application.
# Pyrenophora teres = Pyrenophora teres / barley / leaf disc preventative (net blotch); assay type: in vivo; settings: foliar, barley leaf segments cv Hasso, inoculated two days after application, assessed 5-7 days after application, read-out: control of Pyrenophora teres (disease control compared to untreated)
# In short: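 Preventative leaf-disc test: 200 ppm spray, then spore inoculation after two days on barley cv Hasso segments. Incubation 20 °C, 65% relative humidity, 12 h light/12 h dark; efficacy rated against untreated checks at 5-7 days post-application.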
# [1] = tested on: Glomerella lagenarium (Colletotrichum lagenarium); experiment: Glomerella lagenarium (Colletotrichum lagenarium) / liquid culture (anthracnose); assay type: cell-based; settings: Colletotrichum orbiculare, PDB, 24° C., 3-4 days after application, read-out: control of Glomerella lagenarium (inhibition of growth, photometric)
# Experimental: as §1, with “Glomerella lagenarium (Colletotrichum lagenarium)/Liquid” for “Gaeumannomyces graminis/Liquid”, “(Anthracnose): Conidia” for “(Take-all of Cereals): Mycelial fragments”, “broth” for “broth Cp.33,”, “was” for “is”, “is measured” for “was determined”, “3-4” for “4-5”
# [2] = tested on: Mycosphaerella graminicola (Septoria tritici); experiment: Mycosphaerella graminicola (Septoria tritici) / liquid culture (Septoria blotch); assay type: cell-based; settings: Zymoseptoria tritici, PDB, 24° C., 4-5 days after application, read-out: control of Mycosphaerella graminicola (inhibition of growth, photometric)
# In short: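 Growth inhibition was read photometrically after 4–5 days at 24 °C. The test compound was applied at 200 ppm from DMSO solution, then PDB broth seeded with conidia taken straight from cryogenic storage was added.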
# [3] = tested on: Thanatephorus cucumeris (Rhizoctonia solani); experiment: Thanatephorus cucumeris (Rhizoctonia solani) / liquid culture (foot rot, damping-off); assay type: cell-based; settings: PDB, 24° C., 3-4 days after application, read-out: control of Thanatephorus cucumeris (inhibition of growth, photometric)
# In short: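 At 200 ppm, compounds in DMSO were combined with fresh liquid-culture mycelia in PDB and kept at 24° C; photometric measurement of growth inhibition after 3-4 days.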
# [4] = tested on: Mycosphaerella arachidis (Cercospora arachidicola); experiment: Mycosphaerella arachidis (Cercospora arachidicola) / liquid culture (early leaf spot); assay type: cell-based; settings: PDB, 24° C., 4-5 days after application, read-out: control of Mycosphaerella arachidis (inhibition of growth, photometric)
# Experimental: Mycosphaerella Arachidis (Cercospora arachidicola)/Liquid Culture (Early Leaf Spot): Conidia of the fungus from cryogenic storage were directly mixed into nutrient broth (PDB potato dextrose broth). After placing a DMSO solution of test compound into a 96-well microtiter plate at an application rate of 200 ppm, the nutrient broth containing the fungal spores was added. The test plates are incubated at 24° C. and the inhibition of growth was determined photometrically 4-5 days after application.
# [5] = tested on: Botryotinia fuckeliana (Botrytis cinerea); experiment: Botryotinia fuckeliana (Botrytis cinerea) / liquid culture (gray mould); assay type: cell-based; settings: Vogels broth, 24° C., 3-4 days after application, read-out: control of Botryotinia fuckeliana (inhibition of growth, photometric)
# In short: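 Test compound was applied at 200 ppm in DMSO, then Vogels nutrient broth containing cryo-stored B. cinerea conidia was added. Photometric growth-inhibition reading followed after 3-4 days at 24 °C.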
# [6] = tested on: Puccinia recondita f. sp. Tritici; experiment: Puccinia recondita f. sp. tritici / wheat / leaf disc preventative (brown rust); assay type: in vivo; settings: foliar, wheat leaf segments cv Kanzler, inoculated 1 day after application, assessed 7-9 days after application, read-out: control of Puccinia recondita f. sp. Tritici (percent disease control compared to untreated)
# In short: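 Preventative test: percent disease control relative to untreated leaf segments was assessed 7-9 days post-application. Wheat (cv Kanzler) leaf discs were treated at 200 ppm and spore-inoculated 1 day afterwards. Discs were held at 19° C and 75% relative humidity under a 12/12 h light cycle.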
# Sclerotinia sclerotiorum = Sclerotinia sclerotiorum liquid culture (cottony rot / white mold); assay type: cell-based; settings: PDB, 24° C., 3-4 days after application, read-out: control of Sclerotinia sclerotiorum (inhibition of growth, photometric)
# Experimental: Sclerotinia sclerotiorum (Cottony Rot/White Mold): Mycelia fragments of a newly grown liquid culture of the fungus were directly mixed into nutrient broth (PDB potato dextrose broth). After placing a (DMSO) solution of test compound into a microtiter plate (96-well format) the nutrient broth containing the fungal material was added. The test plates are incubated at 24° C. and the inhibition of growth was determined photometrically 3-4 days after application.
# [7] = tested on: Phaeosphaeria nodorum (Septoria nodorum); experiment: Phaeosphaeria nodorum (Septoria nodorum) / wheat / leaf disc preventative (glume blotch); assay type: in vivo; settings: Parastagonospora nodorum, foliar, wheat leaf segments cv Kanzler, inoculated 2 days after application, assessed 5-7 days after application, read-out: control of Phaeosphaeria nodorum (percent disease control compared to untreated)
# Experimental: Phaeosphaeria nodorum (Septoria nodorum)/Wheat/Leaf Disc Preventative (Glume Blotch): Wheat leaf segments cv Kanzler were placed on agar in a 24-well plate and sprayed with formulated test compound diluted in water at an application rate of 200 ppm. The leaf disks are inoculated with a spore suspension of the fungus 2 days after application. The inoculated test leaf disks are incubated at 20° C. and 75% relative humidity under a light regime of 12/12 h (light/dark) in a climate cabinet and the activity of a compound is assessed as percent disease control compared to untreated when an appropriate level of disease damage appears in untreated check leaf disks (5-7 days after application).
# [8] = tested on: Monographella nivalis (Microdochium nivale); experiment: Monographella nivalis (Microdochium nivale) / liquid culture (foot rot cereals); assay type: cell-based; settings: PDB, 24° C., 4-5 days after application, read-out: control of Monographella nivalis (inhibition of growth, photometric)
# Experimental: as §1, with “Monographella nivalis (Microdochium nivale)/Liquid” for “Gaeumannomyces graminis/Liquid”, “(Foot Rot” for “(Take-all of”, “Conidia” for “Mycelial fragments”, “broth” for “broth Cp.33,”, “was” for “is”
Compound,melting point [°C],inhibition at 20 ppm (Gaeumannomyces graminis) [%],pest or weed control at 200 ppm (Pyrenophora teres) [%],inhibition at 20 ppm [1] [%],inhibition at 20 ppm [2] [%],inhibition at 20 ppm [3] [%],inhibition at 20 ppm [4] [%],inhibition at 20 ppm [5] [%],pest or weed control at 200 ppm [6] [%],inhibition at 20 ppm (Sclerotinia sclerotiorum) [%],pest or weed control at 200 ppm [7] [%],inhibition at 20 ppm [8] [%]
"Cn1c(-n2ncnc2N)nc2cnccc21 [Compound 14, 2-(1-methylimidazo[4,5-c]pyridin-2-yl)-1,2,4-triazol-3-amine]",240 to 244,≥ 80,≥ 80,–,–,–,–,–,–,–,–,–
"Cc1nc(N)n(-c2nc3cnccc3n2C2CCCCC2)n1 [Compound 5, 2-(1-cyclohexylimidazo[4,5-c]pyridin-2-yl)-5-methyl-1,2,4-triazol-3-amine]",212 to 215,≥ 80,≥ 80,–,–,–,–,–,–,–,–,–
"Nc1ncnn1-c1nc2cncc(Br)c2n1C1CCCCC1 [Compound 112, 2-(7-bromo-1-cyclohexylimidazo[4,5-c]pyridin-2-yl)-1,2,4-triazol-3-amine]",217 to 218,–,–,≥ 80,–,–,–,–,–,–,–,–
C=C(Cl)CO/N=C(\C)c1cncc2nc(-n3ncnc3N)n(CC)c12 [Compound 152],–,–,≥ 80,≥ 80,≥ 80,≥ 80,≥ 80,–,–,–,–,–
"CCn1c(-n2ncnc2N)nc2cncc(C(=O)C=Cc3ccc(F)cc3)c21 [Compound 108, 1-[2-(5-amino-1,2,4-triazol-1-yl)-1-ethylimidazo[4,5-c]pyridin-7-yl]-3-(4-fluorophenyl)prop-2-en-1-one]",205 to 209,≥ 80,≥ 80,–,≥ 80,≥ 80,–,–,–,–,–,–
"CCCn1c(-n2ncnc2N)nc2cncc(Br)c21 [Compound 110, 2-(7-bromo-1-propylimidazo[4,5-c]pyridin-2-yl)-1,2,4-triazol-3-amine]",207 to 208,–,≥ 80,–,≥ 80,≥ 80,–,≥ 80,≥ 80,–,–,–
"CCCC=Cc1cncc2nc(-n3ncnc3N)n(CC)c12 [Compound 68, 2-(1-ethyl-7-pent-1-enylimidazo[4,5-c]pyridin-2-yl)-1,2,4-triazol-3-amine]",–,≥ 80,≥ 80,–,≥ 80,≥ 80,≥ 80,≥ 80,≥ 80,≥ 80,≥ 80,–
"CCn1c(-n2ncnc2N)nc2cncc(C=Cc3ccccc3)c21 [Compound 21, 2-[1-ethyl-7-(2-phenylethenyl)imidazo[4,5-c]pyridin-2-yl]-1,2,4-triazol-3-amine]",247 to 252,≥ 80,–,–,≥ 80,≥ 80,–,–,–,–,–,–
"CCn1c(-n2ncnc2N)nc2cncc(-c3ccc(F)cc3)c21 [Compound 29, 2-[1-ethyl-7-(4-fluorophenyl)imidazo[4,5-c]pyridin-2-yl]-1,2,4-triazol-3-amine]",275 to 277,≥ 80,–,–,≥ 80,≥ 80,–,≥ 80,–,–,–,–
"CCn1c(-n2ncnc2N)nc2cncc(C(C)O)c21 (stereo not drawn) [Example P8, 1-[2-(5-amino-1,2,4-triazol-1-yl)-1-ethyl-imidazo[4,5-c]pyridin-7-yl]ethanol]",220 to 226,–,–,–,–,–,–,–,–,–,–,–
"Nc1nc(Br)nn1-c1nc2cnccc2n1C1CCCCC1 [Compound 20, 5-bromo-2-(1-cyclohexylimidazo[4,5-c]pyridin-2-yl)-1,2,4-triazol-3-amine]",217 to 221,–,–,≥ 80,–,–,–,–,–,–,–,–
"CCn1c(-n2ncnc2N)nc2cncc(-c3ccccc3C)c21 [Compound 72, 2-[1-ethyl-7-(2-methylphenyl)imidazo[4,5-c]pyridin-2-yl]-1,2,4-triazol-3-amine]",–,–,≥ 80,–,≥ 80,≥ 80,≥ 80,≥ 80,≥ 80,–,≥ 80,–
"CCn1c(-n2ncnc2N)nc2c(Cl)ncc(-c3ccccc3C)c21 [Example P7, 2-[4-chloro-1-ethyl-7-(o-tolyl)imidazo[4,5-c]pyridin-2-yl]-1,2,4-triazol-3-amine]",274 to 278,–,–,–,–,–,–,–,–,–,–,–
"CCn1c(-n2ncnc2N)nc2cncc(-c3ccc(OC)cc3Cl)c21 [Compound 94, 2-[7-(2-chloro-4-methoxyphenyl)-1-ethylimidazo[4,5-c]pyridin-2-yl]-1,2,4-triazol-3-amine]",–,≥ 80,≥ 80,≥ 80,≥ 80,≥ 80,–,≥ 80,≥ 80,≥ 80,≥ 80,≥ 80
CCn1c(-n2ncnc2N)nc2cncc(/C(C)=N/OC/C=C\Cl)c21 [Compound 171],–,≥ 80,≥ 80,≥ 80,≥ 80,≥ 80,–,≥ 80,–,≥ 80,≥ 80,≥ 80
"C=CCn1c(-n2ncnc2N)nc2cnccc21 [Compound 17, 2-(1-prop-2-enylimidazo[4,5-c]pyridin-2-yl)-1,2,4-triazol-3-amine]",215 to 216,≥ 80,≥ 80,–,≥ 80,≥ 80,–,≥ 80,≥ 80,–,–,–
"Nc1nc(-c2ccccc2)nn1-c1nc2cnccc2n1C1CCCCC1 [Example P1, 2-(1-cyclohexylimidazo[4,5-c]pyridin-2-yl)-5-phenyl-1,2,4-triazol-3-amine]",222 to 225,–,–,–,–,–,–,–,–,–,–,–
CCn1c(-n2ncnc2N)nc2cncc(C(C)=NOCc3ccccn3)c21 [Compound 142],138 to 149,≥ 80,≥ 80,–,–,≥ 80,–,–,–,–,–,–
